Test results published in patent publication US20110111515A1, “REAGENT FOR MEASUREMENT OF REACTIVE OXYGEN” (THE UNIVERSITY OF TOKYO, priority 2008, published 2011).

Assays:
Type in all cases: physicochemical
[1] = Change of absorbance at maximum absorption wavelength after reaction with superoxide anion (Example 2); settings: 10 μM dye in 0.1 M phosphate buffer; xanthine oxidase 4 mU, xanthine 33 μM; FIG. 2
Protocol: (§1) Cy5, Cy7, Compound 2 (cyanine compound constituting the second cyanine compound residue) and Compound 3 (cyanine compound constituting the first cyanine compound residue), the latter two of which were obtained above, were reacted with hydroxyl radical, peroxynitrite, hypochlorite ion, and superoxide anion, and change of absorbance at the maximum absorption wavelength was measured. For the measurement, 10 μM solutions of Cy5, Cy7, Compound 2, and Compound 3 in 0.1 M phosphate buffer were prepared, and the measurement was performed with the prepared solutions under the following conditions.
(§2) Xanthine oxidase and xanthine were added to final concentrations of 4 mU and 33 μM, respectively.
(§3) In the graph, the test results for those reactive oxygen species are indicated in the order of Cy5, Compound 2, Cy7, and Compound 3 from the left.

[2] = Change of absorbance at maximum absorption wavelength after reaction with reactive oxygen species (Example 2); settings: 10 μM dye in 0.1 M phosphate buffer; all reactive oxygen species (hydroxyl radical, peroxynitrite, hypochlorite ion, superoxide anion); FIG. 2
Protocol: as §1
Hydrogen peroxide and iron(II) perchlorate were added to final concentrations of 1 mM and 50 μM, respectively.
Peroxynitrite was added to a final concentration of 10 μM.
Hypochlorite ions were added to a final concentration of 10 μM.
as §2, §3

[3] = Oxidation potential (Ep) of cyanine dyes, saturated calomel electrode as reference; settings: saturated calomel electrode (SCE) as reference electrode

Row | Decrease of absorbance at maximum absorption wavelength for superoxide anion [1] | Ep [3] | Molecule | Decrease of absorbance at maximum absorption wavelength upon addition of reactive oxygen species [2]
1 | no decrease of absorbance | 0.658 V vs SCE | CC1(C)C(/C=C/C=C/C=C2/N(CCC(=O)O)c3ccc(S(=O)(=O)O)cc3C2(C)C)=[N+](CCC(=O)O)c2ccc(S(=O)(=O)O)cc21 [Compound 2] | the smallest decrease of absorbance
2 |  | 0.333 V vs SCE | CN1/C(=C/C=C2\CCCC(/C=C/C3=[N+](C)c4ccccc4C3(C)C)=C2SCCC(=O)O)C(C)(C)c2ccccc21 [Compound 3] | larger decrease of absorbance than did Cy7
3 |  | 0.476 V vs SCE | CCN1C(=CC=CC=CC=CC2=[N+](CCCCCC(=O)O)c3ccc(S(=O)(=O)O)cc3C2(C)C)C(C)(C)c2cc(S(=O)(=O)[O-])ccc21 [Cy7, reference compound] | larger decrease of absorbance than did Cy5
4 |  | 0.516 V vs SCE | Cy5 [reference compound] | 
